Literature values as cited in patent US20240105341A1, “SYSTEMS AND METHODS FOR ESTIMATING TUMOR GROWTH” (AMGEN INC., priority 2022, published 2024).
Like-named read-outs stand apart in the source and are kept apart here.

Key:
[1] = tested on: metastatic, castration-resistant prostate cancer (mCRPC); conditions: FIRSTANA 2017, phase 3, chemo-naive
[2] = tested on: metastatic, castration-resistant prostate cancer (mCRPC); conditions: PREVAIL 2014, phase 3, chemo-naive

CO[C@H]1C(=O)[C@]2(C)[C@@H](OC)C[C@H]3OC[C@@]3(OC(C)=O)[C@H]2[C@H](OC(=O)c2ccccc2)[C@]2(O)C[C@H](OC(=O)[C@H](O)[C@@H](NC(=O)OC(C)(C)C)c3ccccc3)C(C)=C1C2(C)C [Caba20]
CR (number of complete responders) [1]: 1 | Median PFS [1]: 4.4 | PR + CR (number of responders) [1]: 61

CC(=O)O[C@@]12CO[C@@H]1C[C@H](O)[C@@]1(C)C(=O)[C@H](O)C3=C(C)[C@@H](OC(=O)[C@H](O)[C@@H](NC(=O)OC(C)(C)C)c4ccccc4)C[C@@](O)([C@@H](OC(=O)c4ccccc4)[C@H]21)C3(C)C [Doce75]
CR (number of complete responders) [1]: 1 | Median PFS [1]: 5.3 | PR + CR (number of responders) [1]: 54

CNC(=O)c1ccc(N2C(=S)N(c3ccc(C#N)c(C(F)(F)F)c3)C(=O)C2(C)C)cc1F [Enza]
CR (number of complete responders) [2]: 78 | PR + CR (number of responders) [2]: 233
